Measured values from the supplement of paper PMC10307832.

Assays:
Assay in all cases: relative viability (nuclei count vs DMSO), 5 days (fraction); higher = more cells survive
NCI-H2405 = test system: NCI-H2405
Outline: (§1)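 Medians of duplicate plates are given as relative viability. That measure is the nuclei count in treated wells divided by the count in vehicle wells. Counts were taken on 4× images of lung cancer cell lines in 1536-well plates, 5 days after pin-tool dosing the day after seeding with one drug alone or a fixed anchor-drug dose plus five library-drug doses (not always all listed) in √10 steps.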

NCI-H1623 = test system: NCI-H1623
Outline: as §1

NCI-H2009 = test system: NCI-H2009
Outline: as §1

NCI-H1648 = test system: NCI-H1648
Outline: as §1

LOU-NH91 = test system: LOU-NH91
Outline: as §1

NCI-H647 = test system: NCI-H647
Outline: as §1

Calu-6 = test system: Calu-6
Outline: as §1

A549 = test system: A549
Outline: as §1

EBC-1 = test system: EBC-1
Outline: as §1

NCI-H1703 = test system: NCI-H1703
Outline: as §1

IA-LM = test system: IA-LM
Outline: as §1

NCI-H1299 = test system: NCI-H1299
Outline: as §1

SMILES: CN1CCN(CCOc2cc(OC3CCOCC3)c3c(Nc4c(Cl)ccc5c4OCO5)ncnc3c2)CC1 [Saracatinib] + Cc1cc(Nc2cc(N3CCN(C)CC3)nc(Sc3ccc(NC(=O)C4CC4)cc3)n2)n[nH]1 [Tozasertib] (partner 0.1 µM)
- relative viability (NCI-H2405; first compound 0.02 µM): 0.778
- relative viability (NCI-H2405; first compound 0.2 µM): 0.661
- relative viability (NCI-H2405; first compound 0.6325 µM): 0.706
- relative viability (NCI-H2405; first compound 2 µM): 0.521
- relative viability (NCI-H1623; first compound 0.02 µM): 0.447
- relative viability (NCI-H1623; first compound 0.2 µM): 0.443
- relative viability (NCI-H1623; first compound 0.6325 µM): 0.456
- relative viability (NCI-H1623; first compound 2 µM): 0.348
- relative viability (NCI-H2009; first compound 0.02 µM): 0.655
- relative viability (NCI-H2009; first compound 0.2 µM): 0.715
- relative viability (NCI-H2009; first compound 0.6325 µM): 0.5
- relative viability (NCI-H2009; first compound 2 µM): 0.609
- relative viability (NCI-H1648; first compound 0.02 µM): 0.629
- relative viability (NCI-H1648; first compound 0.6325 µM): 0.813
- relative viability (NCI-H1648; first compound 2 µM): 0.362
- relative viability (LOU-NH91; first compound 0.02 µM): 0.655
- relative viability (LOU-NH91; first compound 0.2 µM): 0.449
- relative viability (LOU-NH91; first compound 0.6325 µM): 0.476
- relative viability (LOU-NH91; first compound 2 µM): 0.42
- relative viability (NCI-H647; first compound 0.02 µM): 0.257
- relative viability (NCI-H647; first compound 0.2 µM): 0.293
- relative viability (NCI-H647; first compound 0.6325 µM): 0.275
- relative viability (NCI-H647; first compound 2 µM): 0.231

SMILES: CCNC(=O)c1noc(-c2cc(C(C)C)c(O)cc2O)c1-c1ccc(CN2CCOCC2)cc1 [Luminespib] + COc1cc2c(Oc3ccc(NC(=O)C4(C(=O)Nc5ccc(F)cc5)CC4)cc3F)ccnc2cc1OCCCN1CCOCC1 [Foretinib] (partner 0.25 µM)
- relative viability (Calu-6; first compound 0.002 µM): 0.888
- relative viability (Calu-6; first compound 0.006325 µM): 0.889
- relative viability (Calu-6; first compound 0.02 µM): 1.03
- relative viability (Calu-6; first compound 0.06325 µM): 0.0858
- relative viability (Calu-6; first compound 0.2 µM): 0.086
- relative viability (A549; first compound 0.002 µM): 1.04
- relative viability (A549; first compound 0.006325 µM): 0.842
- relative viability (A549; first compound 0.02 µM): 1.09
- relative viability (A549; first compound 0.06325 µM): 0.138
- relative viability (A549; first compound 0.2 µM): 0.0269
- relative viability (EBC-1; first compound 0.002 µM): 0.0894
- relative viability (EBC-1; first compound 0.006325 µM): 0.116
- relative viability (EBC-1; first compound 0.02 µM): 0.113
- relative viability (EBC-1; first compound 0.06325 µM): 0.0992
- relative viability (EBC-1; first compound 0.2 µM): 0.104
- relative viability (NCI-H2405; first compound 0.002 µM): 1.08
- relative viability (NCI-H2405; first compound 0.006325 µM): 0.852
- relative viability (NCI-H2405; first compound 0.02 µM): 1
- relative viability (NCI-H2405; first compound 0.06325 µM): 0.227
- relative viability (NCI-H2405; first compound 0.2 µM): 0.2
- relative viability (NCI-H1623; first compound 0.002 µM): 0.885
- relative viability (NCI-H1623; first compound 0.006325 µM): 0.783
- relative viability (NCI-H1623; first compound 0.02 µM): 0.67
- relative viability (NCI-H1623; first compound 0.06325 µM): 0.673
- relative viability (NCI-H1623; first compound 0.2 µM): 0.375
- relative viability (NCI-H1703; first compound 0.002 µM): 0.332
- relative viability (NCI-H1703; first compound 0.006325 µM): 0.348
- relative viability (NCI-H1703; first compound 0.02 µM): 0.396
- relative viability (NCI-H1703; first compound 0.06325 µM): 0.21
- relative viability (NCI-H1703; first compound 0.2 µM): 0.222
- relative viability (NCI-H2009; first compound 0.002 µM): 1.22
- relative viability (NCI-H2009; first compound 0.006325 µM): 1.16
- relative viability (NCI-H2009; first compound 0.02 µM): 1.33
- relative viability (NCI-H2009; first compound 0.06325 µM): 0.298
- relative viability (NCI-H2009; first compound 0.2 µM): 0.0898
- relative viability (LOU-NH91; first compound 0.002 µM): 0.922
- relative viability (LOU-NH91; first compound 0.006325 µM): 0.95
- relative viability (LOU-NH91; first compound 0.02 µM): 0.577
- relative viability (LOU-NH91; first compound 0.06325 µM): 0.378
- relative viability (LOU-NH91; first compound 0.2 µM): 0.298
- relative viability (NCI-H647; first compound 0.002 µM): 1.32
- relative viability (NCI-H647; first compound 0.006325 µM): 1.12
- relative viability (NCI-H647; first compound 0.02 µM): 1.32
- relative viability (NCI-H647; first compound 0.06325 µM): 0.131
- relative viability (NCI-H647; first compound 0.2 µM): 0.0972
- relative viability (IA-LM; first compound 0.002 µM): 1.07
- relative viability (IA-LM; first compound 0.006325 µM): 1.13
- relative viability (IA-LM; first compound 0.02 µM): 1.23
- relative viability (IA-LM; first compound 0.06325 µM): 0.0645
- relative viability (IA-LM; first compound 0.2 µM): 0.0409
- relative viability (NCI-H1299; first compound 0.002 µM): 1.08
- relative viability (NCI-H1299; first compound 0.006325 µM): 0.989
- relative viability (NCI-H1299; first compound 0.02 µM): 1.09
- relative viability (NCI-H1299; first compound 0.06325 µM): 1.07
- relative viability (NCI-H1299; first compound 0.2 µM): 0.191
